From PubChem BioAssay (NCI) come the findings set out here.

Among the test systems are A498 renal; HCT-15 colon; KM12 colon; MCF7 breast; MDA-N; NCI-H23 lung; NCI-H522 lung; NCI/ADR-RES ovarian; PC-3 prostate; RPMI-8226 leukemia; SK-MEL-2 melanoma; SN12C renal; SW-620 colon; UO-31 renal; HOP-92 NSCLC; IGROV1 ovarian; MDA-MB-435; OVCAR-4 ovarian; SK-OV-3 ovarian; BT-549 breast.
Holding throughout (experiment): inhibition of tumour cell growth, NCI panel, 48 h

Each structure is given as a SMILES string.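 The compound was tested at five concentrations on cells cultured in 96-well plates, with a 48-hour exposure period. The concentration for full growth arrest is given as TGI.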

With `Nc1ncnc2c1ncn2[C@@H]1C[C@H]1CO`, the TGI in the assay on A498 renal, in the assay on HCT-15 colon, with KM12 colon, with MCF7 breast, in the assay with MDA-N and in the assay on NCI-H23 lung was over 100 µM throughout. The TGI in the assay with NCI-H522 lung, with NCI/ADR-RES ovarian, in the assay with PC-3 prostate, with RPMI-8226 leukemia, with SK-MEL-2 melanoma and with SN12C renal was over 100 µM in each case. In addition, the TGI with SW-620 colon and with UO-31 renal was over 100 µM in each case.

Regarding `COc1c(C(=O)/C(=N/Nc2ccccc2)C(C)=O)c(O)c(OC)c2occc12`, the TGI was over 100 µM in the assay on HCT-15 colon; 99.6 µM with HOP-92 NSCLC; over 100 µM in the assay with IGROV1 ovarian; over 100 µM in the assay with KM12 colon; over 100 µM with MCF7 breast; over 100 µM in the assay on MDA-MB-435. Besides, the TGI in the assay with MDA-N, in the assay with NCI-H23 lung, with NCI-H522 lung, in the assay with NCI/ADR-RES ovarian, in the assay with OVCAR-4 ovarian and in the assay with PC-3 prostate was over 100 µM in each case. Also, the TGI with RPMI-8226 leukemia is over 100 µM; with SK-MEL-2 melanoma, over 100 µM; in the assay on SK-OV-3 ovarian, over 100 µM; in the assay with SN12C renal, over 100 µM; with SW-620 colon, over 100 µM; in the assay with UO-31 renal it was 86.3 µM.

`CN(C)CCSC(=Nc1ccccc1)N1C=COC=C1`: the TGI is over 100 µM in the assay with A498 renal; over 100 µM in the assay with BT-549 breast; 47.4 µM in the assay on HCT-15 colon; 73.2 µM with HOP-92 NSCLC; 33.4 µM in the assay with IGROV1 ovarian; over 100 µM in the assay with KM12 colon. Also, the TGI in the assay on MCF7 breast was 33.9 µM; with MDA-MB-435, 34.8 µM; with MDA-N, 45.4 µM; with NCI-H23 lung, over 73.6 µM; with NCI-H522 lung, 34 µM; in the assay on OVCAR-4 ovarian, over 62 µM. In addition, the TGI was 95.5 µM in the assay with PC-3 prostate; over 100 µM in the assay on RPMI-8226 leukemia; 32.1 µM in the assay with SK-MEL-2 melanoma; over 100 µM in the assay with SK-OV-3 ovarian; 64.6 µM in the assay with SN12C renal; 43.5 µM in the assay on SW-620 colon. This molecule gave a TGI in the assay with UO-31 renal of over 100 µM.

Consider `CC1(C)N(OC2CCCCO2)C(c2ccccc2)C(c2ccccc2)=[N+]1[O-]` (configuration not stated), for which the TGI in the assay on A498 renal, in the assay with BT-549 breast, in the assay with HCT-15 colon, with HOP-92 NSCLC, in the assay with IGROV1 ovarian and in the assay on KM12 colon was over 100 µM in each case. For the same molecule, the TGI in the assay with MCF7 breast, with MDA-N, in the assay on NCI-H23 lung, in the assay on NCI/ADR-RES ovarian, in the assay with OVCAR-4 ovarian and with PC-3 prostate was over 100 µM throughout. The TGI with SK-MEL-2 melanoma, with SK-OV-3 ovarian, with SN12C renal, with SW-620 colon and in the assay with UO-31 renal was over 100 µM in each case.

With `CC(=O)c1ccc(N2CCN(c3c(O)c4c(c(O)c3Cl)C(=O)C=CC4=O)CC2)cc1`, the TGI in the assay with A498 renal is 33.7 µM; in the assay on HCT-15 colon it was over 100 µM; in the assay on HOP-92 NSCLC, 5.13 µM; with IGROV1 ovarian, 15.5 µM; in the assay with MCF7 breast, 2.8 µM; in the assay on MDA-N, 10.8 µM. Besides, the TGI in the assay with NCI/ADR-RES ovarian was found to be 88.5 µM; in the assay on OVCAR-4 ovarian, 10.8 µM; in the assay with PC-3 prostate it was 19.1 µM; in the assay with RPMI-8226 leukemia, 9.43 µM; with SW-620 colon, 12.7 µM; with UO-31 renal it was 22.9 µM.

Regarding `SC[C@@H]1COC[C@H](CS)S1`, the TGI with BT-549 breast, with HCT-15 colon, with IGROV1 ovarian, with KM12 colon, in the assay on MCF7 breast and in the assay on MDA-MB-435 was over 100 µM each time. For the same molecule, the TGI with MDA-N, in the assay with NCI-H23 lung, in the assay with NCI-H522 lung, in the assay on OVCAR-4 ovarian, in the assay on PC-3 prostate and with SK-OV-3 ovarian was over 100 µM each time. Besides, the TGI in the assay on SN12C renal, with SW-620 colon and in the assay on UO-31 renal was over 100 µM each time.

As for `COC(=O)c1ccccc1/C=C1\Cc2cc3c(cc2C1=O)CCC3`, the TGI in the assay with A498 renal, with BT-549 breast, in the assay on HCT-15 colon, in the assay on IGROV1 ovarian, with KM12 colon and with MCF7 breast was over 100 µM throughout. Also, the TGI is 78.8 µM with MDA-N; over 100 µM in the assay with NCI-H23 lung; over 100 µM in the assay on NCI-H522 lung; over 100 µM in the assay on NCI/ADR-RES ovarian; over 100 µM in the assay with OVCAR-4 ovarian; over 100 µM in the assay with PC-3 prostate. Also, the TGI in the assay with RPMI-8226 leukemia, in the assay with SK-MEL-2 melanoma, in the assay with SK-OV-3 ovarian, in the assay with SN12C renal, with SW-620 colon and in the assay with UO-31 renal was over 100 µM throughout.

In the case of `CC1CC(=O)N2CCCNC2=C1C#N` (configuration not stated), the TGI in the assay with BT-549 breast, in the assay on HCT-15 colon, in the assay on IGROV1 ovarian, in the assay with KM12 colon, in the assay with MCF7 breast and in the assay with MDA-MB-435 was over 100 µM throughout. For the same molecule, the TGI in the assay on MDA-N, in the assay on NCI-H23 lung, with NCI-H522 lung, in the assay on NCI/ADR-RES ovarian, in the assay with OVCAR-4 ovarian and in the assay with PC-3 prostate was over 100 µM in each case. The TGI in the assay with RPMI-8226 leukemia, in the assay with SK-MEL-2 melanoma, with SK-OV-3 ovarian, in the assay on SN12C renal, with SW-620 colon and in the assay on UO-31 renal was over 100 µM each time.

On to `C/C(O)=C(/C=N\C(=S)Nc1ccc(Cl)c(Cl)c1)C(=O)Nc1ccccc1C`, for which the TGI was 79.6 µM with A498 renal; over 100 µM in the assay on BT-549 breast; over 100 µM with HCT-15 colon; 58.1 µM with HOP-92 NSCLC; over 100 µM with IGROV1 ovarian; over 100 µM with KM12 colon. The TGI was over 100 µM with MCF7 breast; over 100 µM in the assay on MDA-MB-435; over 100 µM with MDA-N; 76.8 µM in the assay with NCI-H23 lung; 61.1 µM in the assay with NCI/ADR-RES ovarian; 76.5 µM with OVCAR-4 ovarian. The TGI in the assay on SK-MEL-2 melanoma, with SK-OV-3 ovarian, in the assay on SN12C renal, in the assay on SW-620 colon and in the assay on UO-31 renal was over 100 µM in each case.

As to `CC(=O)OCc1cccc(O)c1C(=O)CCC=C(C)C`, the TGI in the assay on A498 renal, in the assay with HCT-15 colon, in the assay with HOP-92 NSCLC, in the assay on IGROV1 ovarian, in the assay on KM12 colon and with MCF7 breast was over 100 µM each time. The TGI in the assay with MDA-MB-435 was over 100 µM; in the assay with MDA-N it was over 100 µM; in the assay with NCI-H23 lung it was over 100 µM; in the assay on NCI-H522 lung, 56.6 µM; in the assay on NCI/ADR-RES ovarian, over 100 µM; in the assay on OVCAR-4 ovarian, over 100 µM. Besides, the TGI in the assay with PC-3 prostate, in the assay on RPMI-8226 leukemia, in the assay on SK-MEL-2 melanoma, in the assay on SK-OV-3 ovarian, in the assay with SN12C renal and in the assay on SW-620 colon was over 100 µM throughout. In addition, the TGI in the assay with UO-31 renal is over 100 µM.

`NC(=O)Cc1ncn(-c2ccccc2)n1`: the TGI in the assay with A498 renal, in the assay on BT-549 breast, in the assay with HCT-15 colon, with HOP-92 NSCLC, with IGROV1 ovarian and in the assay on KM12 colon was over 100 µM in each case. Also, the TGI in the assay with MCF7 breast, with MDA-MB-435, in the assay on MDA-N, in the assay on NCI-H23 lung, in the assay on NCI-H522 lung and in the assay on NCI/ADR-RES ovarian was over 100 µM in each case. For the same molecule, the TGI with RPMI-8226 leukemia, with SK-MEL-2 melanoma, in the assay with SK-OV-3 ovarian, with SN12C renal, in the assay with SW-620 colon and in the assay on UO-31 renal was over 100 µM each time.

Consider `O=C(O)Cn1nnc2c(=O)[nH][nH]c(=O)c21`, for which the TGI with BT-549 breast, with HCT-15 colon, in the assay on HOP-92 NSCLC, with KM12 colon, in the assay with MCF7 breast and with MDA-MB-435 was over 100 µM in each case. In addition, the TGI is over 100 µM in the assay with MDA-N; over 100 µM in the assay with NCI-H23 lung; over 100 µM in the assay on NCI/ADR-RES ovarian; over 10 µM in the assay on OVCAR-4 ovarian; over 100 µM in the assay with RPMI-8226 leukemia; over 100 µM in the assay on SK-MEL-2 melanoma. The TGI in the assay on SN12C renal and in the assay on UO-31 renal was over 100 µM each time.

In the case of `C=CC1(c2ccc3ccccc3c2)OCC(CC)(CC)CO1`, the TGI stood at 35.1 µM with HCT-15 colon; 52 µM in the assay on HOP-92 NSCLC; 52.3 µM with IGROV1 ovarian; 40.6 µM with KM12 colon; 56.2 µM in the assay on MCF7 breast; 65.7 µM with MDA-MB-435. Also, the TGI in the assay on MDA-N is 65.8 µM; in the assay with NCI-H23 lung, 49.3 µM; with NCI-H522 lung, 50.9 µM; in the assay with NCI/ADR-RES ovarian it was 66.4 µM; in the assay on OVCAR-4 ovarian, over 100 µM; with PC-3 prostate, 65.5 µM. The TGI in the assay on RPMI-8226 leukemia is 80.4 µM; in the assay with SK-MEL-2 melanoma, 34.7 µM; with SK-OV-3 ovarian it was over 100 µM; in the assay on SN12C renal, 44.5 µM; in the assay with SW-620 colon it was 43.4 µM; with UO-31 renal, 86.1 µM.
